Experimental findings from patent US20250178051A1, “METHODS OF CONTROLLING MICROBIOLOGICAL PROCESSES FOR IN SITU CONTAMINANT TREATMENT” (priority 2022, published 2025) are described below.

In experiment [1] the test system is soil-derived propane-consuming mixed culture. Briefly: TCE cometabolism and biomass production of mixed culture after acetylene exposure. The experiment is classed as cell-based, mixed culture enriched from an uncontaminated soil. The settings on record: for TCE consumption rate: 5% v/v acetylene, 50 μM TCE. The text has this:
(§1) Aerobic cometabolism of TCE is a viable methodology for TCE removal in large diffuse contaminant plumes. A pure culture of the known aerobic cometabolic TCE degrader, Mycobacterium austroafricanum JOB5 (formerly known as Mycobacterium vaccae JOB5) and a mixed culture enriched from an uncontaminated soil in mineral medium using propane and oxygen as growth substrates were used to test the efficiency of acetylene in reducing biomass growth rate (e.g., a proxy for bioclogging). The mixed culture was created through serial transfers from the original soil microcosms.
(§2) The pure and mixed cultures were then exposed to 50 μM TCE to verify their capacity to aerobically cometabolically degrade TCE. Once their capability to degrade TCE was verified, both cultures were grown in 2 L bottles and fed oxygen and propane until the optical density at 600 nm stabilized at ˜0.2 for multiple days. Then, the two cultures were exposed to acetylene at 5% v/v for varying lengths of time (no exposure (0), 1, 2, 4 and 8 days). The dissolved acetylene concentration in the 2 L bottles was 2.2 mmol/L.
(§3) After the set acetylene exposure time, culture was extracted, and triplicate bottles were started with 50 μM TCE and a pure oxygen headspace. The cultures were then monitored for propane (residual and added) and oxygen consumption, TCE degradation, carbon dioxide production, biomass production, and pH change.

Experiment [2] relates to Mycobacterium austroafricanum JOB-5 (JOB-5) and a mixed culture, named COMET1. As to the kind of experiment: Soil columns with contaminated site soil and groundwater, flow through mode, acetylene-containing groundwater. The settings on record: soil columns, propane fed and acetylene inhibited, two three-hour pulses per day at 0.2 mL/min. The arrangement: species or system Mycobacterium austroafricanum JOB-5 and COMET1 mixed culture. As for the experimental part: Groundwater was pumped at a 2-Day HRT (0.2 mL/min) from six pumps programmed to automatically turn on and turn off to deliver groundwater of varying chemistries to the soil columns. For the Propane-Fed (pumps 2-3) and the Propane-Fed and Acetylene-Inhibited treatments (pumps 4-6) which had multiple pumps feeding into one line PVC plastic check valves were installed at line splitting locations to avoid backflow to other feeder bags when pumps automatically started or stopped pumping according to the schedule presented in FIG. 5.
Acetylene or propane from a gas tank was bubbled into groundwater in a closed container in the lab. That groundwater was then pumped from closed container to a sealable Tedlar bag. The Tedlar bag was then connected to the pump which was controlled by a timer to deliver two three-hour pulses of acetylene containing groundwater at 0.2 mL/min per day. The pump effectively serves as a seal for the Tedlar bag as the tubing is pinched at one location to create suction.
For propane, 0.5 L of propane was bubbled through 10 L water for at least four hours. That propane-containing water was then pumped into a Tedlar bag. For the treatments which received propane-containing water, the water was pumped into the columns at 0.2 mL/min to 6 hrs/day (two three-hour pulses). For acetylene, 0.5 L of acetylene was bubbled through 10 L water for at least four hours. That acetylene-containing water was then pumped into a Tedlar bag. For the treatments which received acetylene-containing water, the water was pumped into the columns at 0.2 mL/min to 6 hrs/day (two three-hour pulses) […]
Phase I involves bioaugmentation in soil columns in batch mode. […] Batches were continued until either propane was not detected in the groundwater or propane consumption slowed. […]
Phase II involves flow through mode. […] These gas syringes were then analyzed for TCE, propane, and acetylene via gas chromatography with flame ionization detection (GC-FID) and for oxygen and carbon dioxide via assessment of a thermal conductivity detector (TCD). […]

The subject of experiment [3] is Mycobacterium austroafricanum JOB5. Briefly: TCE cometabolism and biomass production of pure culture after acetylene exposure. The class given is cell-based. The settings on record: for TCE consumption rate: 5% v/v acetylene, 50 μM TCE.
From the text: as §1, §2, §3

[4] abbreviates: as acetylene exposure times increased (1-8 days), 5% v/v.

Take `C#C` [acetylene]: the “rate of TCE degradation” value in experiment [1] (setting [4]) and in experiment [3] (setting [4]) was “decreased” in each case. The “rate of biomass production (optical density)” value in experiment [1] (setting [4]) and in experiment [3] (setting [4]) was “decreased” in each case. Further, the TCE consumption rate was 0.45 μmol TCE/(L day) in experiment [1] (day 1 of acetylene exposure); 0.54 μmol TCE/(L day) in experiment [1] (day 2 of acetylene exposure); 0.52 μmol TCE/(L day) in experiment [1] (day 4 of acetylene exposure); 0.25 μmol TCE/(L day) in experiment [1] (day 8 of acetylene exposure); 0.42 μmol TCE/(L day) in experiment [3] (day 1 of acetylene exposure); 0.63 μmol TCE/(L day) in experiment [3] (day 2 of acetylene exposure). Further, the TCE consumption rate in experiment [3] (day 4 of acetylene exposure) was 0.36 μmol TCE/(L day); in experiment [3] (day 8 of acetylene exposure), 0.07 μmol TCE/(L day). For the same molecule, the “TCE degradation (cumulative TCE removal)” value in experiment [2] is recorded as “slowed”. For the same molecule, the “biomass production (total organic carbon as proxy)” value in experiment [2] is “slowed”. For the same molecule, the “propane consumption (cumulative)” value in experiment [2] was “slowed”.
